{
  "source": "patent US11938129B2",
  "about": "“Methods and compositions for the treatment of vascular disease” (THE GENERAL HOSPITAL CORPORATION, priority 2018, dated 2024)",
  "key": {"a-SMA and SM22a": {"tested_on": "a-SMA and SM22a", "assay": "immunofluorescence of contractile proteins in ligated carotids", "type": "in vivo, mouse", "conditions": "ligated carotid, in contrast to carotid VSMCs in wild type animals", "method": "All mice used in this study were cared for under strict compliance with the Partners Institutional Animal Care and Use Committee (IACUC), regulated by the United States Public Health Service (USPHS). Carotid ligations were performed in 10 week old mice. Briefly, animals were anesthetized using intraperitoneal ketamine/xylazine (80 and 12 mg/kg, respectively) followed by a small incision in the neck to expose the carotid artery. Then the left carotid was ligated at the carotid bifurcation level using a 8-0 silk suture. At 21 days mice were sacrificed and carotids were collected for histological analysis. Approximately 98% of wild type mice developed stenotic lesions. Mice that developed thrombosis of the ligated carotid were excluded from the study (−1¬2%). Malatl knockout mice were kindly provided by Dr. David Spector (Cold Spring Harbor, N.Y.). Hdac9 flox/flox/Talgn-cre mice were generated as previously reported (10). Ezh2 fl/fl/ (STOCK Ezh2tm2Sho/J) and Myh11-cre-GFP (B6.Cg-Tg(Myh11-cre,-EGFP)2Mik/J) were crossed to generate smooth muscle cell-Ezh2 deficient mice. All above mice and wild-type mice (C57BL/6J) were purchased from Jackson laboratory. For tissue analysis, animals were euthanized through inhalational isoflurane (Sigma, St, Louis, Mo.) prior to tissue collection. All carotid ligation (left carotid) procedures were performed at 10 weeks of age. All experiments were performed on male and female animals at a 1:1 ratio.\nLeft and right carotids were cryosectioned using OCT standard protocol and sectioning. The right carotid artery was unligated and served as an internal control. Neoinitima analysis was performed from hematoxylin and eosin (H & E) stained horizontal cross-sections embedded in Optimal Cutting Temperature compound (OCT). Briefly, the distal 0.2 mm of carotid from the ligation suture site were discarded followed by generation of 20 slides (10 pM). Slides 1, 5, 10, and 15 were H&E stained for quantification of neointima. For quantification of the neointima, internal and external elastic lamina perimeters and medial thickness from 4 quadrants were measured and averaged using Image J software from the National Institutes of Health (NIH). Slides 2-4, 6-9, and 11-14 were used for immunofluorescence staining.\nCohorts of 10-week-old wild-type mice were treated with oral administration in drinking water of GSK343 24 hrs before left carotid ligation and following treatment for 3 weeks. GSK343 inhibitor (25 mg) was dissolved in 1 mL of DMSO to obtain a stock solution of 46 mM. Then, 250 ml of drinking water was supplemented with 250 pl of GSK343 stock solution. Control group for was given with equal volumes of sterile water. Bottles containing GSK343 were replaced with fresh water supplied with drug every 3 days. […]"}, "[1]": {"assay": "delivery of fluorescently labeled GapmeR to the vasculature", "type": "in vivo, mouse", "conditions": "ligated carotid of GapmeR treated mice, not in vehicle and GSK343 treated mice"}},
  "note": "{FAM} = FAM fluorophore (/36-FAM/)",
  "data": [
    {"substance": "3′-FAM-GapmeR-Malatl: fluorescently labeled GapmeR against MALAT1, GTCACAATGCATTCTA/36-FAM/ (SEQ ID NO: 2) (3' {FAM}, sugars by position and backbone not given here; LNA gapmer)", "values": [
      {"measurement": "expression of α-SMA in carotid VSMCs", "setting": "a-SMA and SM22a", "value": "robust expression"},
      {"measurement": "detection of 3′-FAM labeled GapmeR in ligated carotid", "setting": "[1]", "value": "Detection"}
    ]}
  ]
}
